The values below are quoted from earlier work in patent US20030004116A1, “Noni extract for prevention of disease” (priority 2001, published 2003).

In one data set the test system is K-ras-NRK cells. The note with it: reversible when compound withdrawn.
Data set [1] relates to RSV-NRK cells expressing the src oncogene.

Take `COc1c(C=O)c(O)cc2c1C(=O)c1ccccc1C2=O` [Damnacathal]: in the data set on K-ras-NRK cells, the “morphology and cytoskeletal structure” value was “induced normal morphology and cytoskeletal structure”. Also, the effect on cells entry in data set [1] is “no effect”.
